# Reference: patent US5965126A, “use of mutant alkyltransferases for gene therapy to protect from toxicity of therapeutic alkylating agents” (priority 1996, dated 1999)
# Numbering of substitutions follows the chain as printed.
# Legend:
# human AGT mutant P140A = target: T1, human AGT mutant P140A (Homo sapiens, UniProt P16455, P140A); assay: Inactivation of cellular AGT in CHO cells expressing mutant P140A (CHO-P140A); format: cell-based; conditions: for Increase of ED50 with P140A AGT: relative to control AGT in CHO cells, 240 min
# T1 construct: expressed in transfected cells; host or cells: Chinese hamster ovary (CHO) cells
# T1 sequence (P16455 1-207 P140A): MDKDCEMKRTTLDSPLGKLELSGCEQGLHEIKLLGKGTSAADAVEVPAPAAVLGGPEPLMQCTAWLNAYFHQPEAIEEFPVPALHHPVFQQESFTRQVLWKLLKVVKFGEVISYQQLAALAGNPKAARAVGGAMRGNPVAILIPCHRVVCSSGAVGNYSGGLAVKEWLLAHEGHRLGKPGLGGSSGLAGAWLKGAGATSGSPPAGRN
# Description: (§1) The cells were then harvested and the AGT activity determined.
# (§2) AGT activity assays--Extracts were prepared and AGT activity was determined as described by Dolan et al. (Dolan, et al., 1990, Proc. Natl. Acad. Sci. U.S.A. 87: 5368-5372) by incubation for 30 min at 37° C. with a [^3 H]methylated calf thymus DNA substrate prepared by reaction of DNA with N-[^3 H]methyl-N-nitrosourea (Amersham Inc., Arlington Hts., Ill.). The AGT activity of the cells was then expressed as fmol of O^6 -methylguanine removed per mg of protein present in the cell extracts. Protein was determined by the method of Bradford (Bradford, 1976, Anal. Biochem. 72: 248-254). […] After 4 h exposure, the cells were harvested and washed with PBS. Cell pellets were stored at -80° C. until assayed. Extracts were then prepared and AGT activity determined. The results were expressed as the percentage of the AGT activity present in cultures to which no drug was added.
# human AGT mutant G156A = target: T2, human AGT mutant G156A (Homo sapiens, UniProt P16455, G156A); assay: Inactivation of cellular AGT in CHO cells expressing mutant G156A (CHO-G156A); format: cell-based; conditions: for Increase of ED50 with G156A AGT: relative to control AGT in CHO cells, 240 min
# T2 construct: expressed in transfected cells; host or cells: Chinese hamster ovary (CHO) cells
# T2 sequence (P16455 1-207 G156A): T1 sequence (P16455 1-207 P140A) with A140P, G156A
# Description: as §1, §2
# [1] = test system: CHO cells expressing mutant AGTs; assay: Effect of AGT inhibitors alone on colony formation; format: cell-based, Chinese hamster; conditions: inhibitor alone, 18-20 h, cells expressing G156A
# Description: FIG. 5 show the effect of different concentrations of BG and 5-nitroso-BP on colony formation. BG was added to CHO cells expressing mutant AGTs P140 (.circle-solid.) and G156A (.quadrature.) and 5-nitroso-BP was added to cells expressing G156A (.box-solid.) for 18-20 h. The cells were then replated as described in materials and methods and colonies were counted 7-8 days later.
# (§3) Cytotoxicity assays--Cell killing was determined using a colony forming assay (Pegg, et al., 1995, Biochem. Pharmacol. 50: 1141-1148; Dolan, et al., 1986, Cancer Res. 46: 4500-4504). The cells were plated using 10^6 cells per 25 cm^2 flask and grown for 24 h. After 2 h of incubation with either BG or 5-nitroso-BP, 80 μM BCNU was added for 2 h. The medium was then replaced with fresh medium also containing the AGT inactivator and the cells were left at 37° C. for an additional 16-18 h. The cells were then replated at densities of 100 to 1000 cells per 25 cm^2 flask and grown for 7-8 days until discrete colonies could be stained and counted. The colonies were washed with 0.9% saline and stained with crystal violet and counted.
# [2] = test system: CHO cells expressing control AGT; assay: Sensitization to killing by 80 μM BCNU, colony forming assay, CHO cells expressing control AGT; format: cell-based, Chinese hamster; conditions: with 80 μM BCNU
# Description: (§4) FIG. 6a and FIG. 6b show the effect of different concentrations of BG (FIG. 6a) and 5-nitroso-BP (FIG. 6b) on killing of cells by BCNU. Cells were treated with BG or 5-nitroso-BP at the concentrations indicated for 2 h and BCNU at 80 μM was added for 2 h. Medium was replaced with fresh medium also containing the AGT inhibitor but not BCNU for the period of 18 h. The cells were then replated as described in materials and methods and colonies were counted 7-8 days later.
# as §3
# [3] = test system: CHO cells expressing P140A AGT; assay: Sensitization to killing by 80 μM BCNU, colony forming assay, CHO cells expressing P140A AGT; format: cell-based, Chinese hamster; conditions: with 80 μM BCNU
# Description: as §4, §3
# [4] = test system: CHO cells expressing G156A AGT; assay: Sensitization to killing by 80 μM BCNU, colony forming assay, CHO cells expressing G156A AGT; format: cell-based, Chinese hamster
# Description: as §4, §3
# AGT [5] = conditions: HT29 cells; read-out: Inactivation of AGT, ED50 after 4 h exposure; cited from earlier work
# AGT [6] = target: T3, AGT (Homo sapiens, UniProt P16455); assay: Inactivation of cellular AGT in CHO cells expressing human AGT (CHO-AGT); format: cell-based; set-up: expressed in transfected cells; host or cells: Chinese hamster ovary (CHO) cells; conditions: read-out: Inactivation of AGT, ED50 after 4 h exposure
# T3 sequence (P16455 1-207): T1 sequence (P16455 1-207 P140A) with A140P
# Description: as §1, §2
# Control CHO cells = assay: Colony forming assay, killing of control CHO cells by BCNU; format: cell-based, Chinese hamster; conditions: 2 h, after 80 μM BCNU, read-out: survival
# Description: (§5) Control CHO cells (.tangle-solidup.) and CHO cells expressing human AGT (.smallcircle.) or its mutants P140A (.circle-solid.) and G156A (.quadrature.) were treated with BCNU at the concentration shown for 2 h. The medium was then replaced. After 16-18 h, the cells were replated as described in Example Section 6 and colonies were counted 7-8 days later.
# as §3
# [7] = test system: CHO cells expressing control or mutant AGT; assay: Colony forming assay, killing by BCNU of transfected CHO cells expressing control or mutant AGT; format: cell-based, Chinese hamster; conditions: up to 100 μM BCNU, highest concentration tested
# Description: as §5, §3
# [8] = test system: ΔMGMT transduced K562 cells; assay: Clonogenic survival in methylcellulose after BG and BCNU, ΔMGMT transduced K562 cells; format: cell-based, human
# [9] = test system: wtMGMT transduced K562 cells; assay: Clonogenic survival in methylcellulose after BG and BCNU, wtMGMT transduced K562 cells; format: cell-based, human
# untransduced K562 cells = assay: Clonogenic survival in methylcellulose after BG and BCNU, untransduced K562 cells; format: cell-based; conditions: Homo sapiens
# [10] = test system: ΔMGMT transduced CD34^+ cells; assay: Clonogenic progenitor survival after BG and BCNU, ΔMGMT transduced CD34+ cells
# Description: (§6) CD34^+ Transduction--Peripheral blood mononuclear cells were obtained by apheresis from patients treated with cyclophosphamide and G-CSF. CD34^+ progenitors were isolated using the Ceprate SC Stem Cell Concentrator (Cell Pro, Bothell, Wash.) according to manufacturer's directions. Briefly, cells were washed and incubated with biotinylated anti-CD34 antibody, passed over an avidin column and the bound fraction eluted by gentle agitation. […] At 48 hours, half of the media was removed, cells were pelleted and resuspended in fresh, supplemented media, and non-adherent cells were collected at 96 hours.
# (§7) BCNU was dissolved in 100% ethanol and diluted to 10 mM with serum free media and immediately added to the cells. Following a two hour incubation at 37° C., cells were incubated in methylcellulose (Stem Cell Technologies, Inc.) containing either SCF, IL3, hemin, erythropoietin, GM-CSF (for CD34^+ cells) or GM-CSF and IL-3 (for K562 cells) in triplicate. […] After incubation for 7-10 days at 37° C. colonies were enumerated and survival was analyzed at each BCNU dose.
# [11] = test system: lac Z transduced hematopoietic progenitor cells; assay: Clonogenic progenitor survival after BG and BCNU, lac Z transduced CD34+ cells; conditions: 10 μM BG and 10 μM BCNU, lac Z transduced progenitors
# Description: as §6, §7
# ΔAGT (G156A) = target: T4, ΔAGT (G156A) (Homo sapiens, UniProt P16455, G156A); assay: cell-based; conditions: K562, read-out: AGT activity retained
# T4 sequence (P16455 1-207 G156A): T1 sequence (P16455 1-207 P140A) with A140P, G156A
# Description: (§9) AGT Assay--AGT activity was measured as [^3 H]-methyl groups removed from [^3 H] O^6 -methylguanine present in [^3 H]-methylnitrosourea treated alkylated calf thymus DNA. The alkylated [^3 H-methyl] O^6 methylguanine and N^7 methylguanine bases were separated by HPLC and quantified by liquid scintillation. AGT activity was expressed as fmol O^6 mG removed/μg DNA or fmol O^6 removed/mgprotein.
# wtAGT = target: T5, wtAGT (Homo sapiens, UniProt P16455); assay: BG inactivation of AGT in wtMGMT transduced K562 cells; conditions: 5 μM BG
# T5 sequence (P16455 1-207): T1 sequence (P16455 1-207 P140A) with A140P
# Description: as §9
# AGT [12] = target: T3, AGT; assay: In vitro screen of potential AGT-inhibiting BG analogs; conditions: versus BG and BGs modified at the benzyl ring
# Description: (§8) Another embodiment of the present invention relates to the use of a mutant AGT protein, preferably a human AGT protein, resistant to inactivation by a compound shown to inactivate or at least substantially inactivate the DNA repair function of wild type AGT which include, but again are in no way limited to the O^6 -substituted guanosine and 2' deoxyguanisine compounds disclosed in U.S. Pat. No. 5,352,669 issued to Moschel, et al. on Oct. 4, 1994. […] Furthermore, escalation of the dBG dose was not restricted by solubility as with BG. Therefore, this class of compounds, as exemplified by dBG, will be useful in practicing the present invention whereby the skilled artisan identifies a related AGT mutant which imparts resistance to addition of dBG both in vitro and in vivo.
# xenograft = assay: In vivo xenograft system, potentiation of BCNU
# Description: as §8
# [13] = Solubility in aqueous media; format: physicochemical
# Description: as §8
# [14] = Homo sapiens, K562, read-out: BCNU IC50, clonogenic survival
# [15] = Homo sapiens, K562, read-out: BCNU IC90, clonogenic survival
compound,measurement,setting,value
"Nc1nc(N)c(N=O)c(OCc2ccccc2)n1 [5-nitroso-BP, 2,4-diamino-6benzyloxy-5-nitrosopyrimidine]",IC50,"human AGT mutant P140A; CHO-P140A cells, read-out: Inactivation of AGT, ED50 after 4 h exposure",1.25 µM
same,Increase of ED50 with P140A AGT,human AGT mutant P140A,25 fold
same,IC50,"human AGT mutant G156A; CHO-G156A cells, read-out: Inactivation of AGT, ED50 after 4 h exposure",5 µM
same,Increase of ED50 with G156A AGT,human AGT mutant G156A,100 fold
same,concentrations reducing colony formation,[1],above 30 μM
same,concentration required to reduce colony formation to <1 per 1000 cells plated,[2],about 5 μM
same,concentration needed to reduce colony formation to <1 per 1000 cells plated,[3],More than 25 μM
same,concentration required to sensitize cells to BCNU,[4]; with 80 μM BCNU,> 40 µM
same,IC50,AGT [5],0.02 µM
same,IC50,AGT [6],0.05 µM
"O=NN(CCCl)C(=O)NCCCl [BCNU, N,N'-bis(2-cholorethyl)-N-nitrosourea]",viability at 80 µM,Control CHO cells,< 0.1%
same,killing by BCNU,[7],completely resistant
same,clonogenic survival,"[8]; 30 μM BCNU & BG, ΔMGMT K562 cells",20%
same,IC50,[8]; [14],11.3 µM
same,IC90,[8]; [15],> 30 µM
same,clonogenic survival,"[9]; 30 μM BCNU & BG, wtMGMT K562 cells",< 1%
same,IC50,[9]; [14],4 µM
same,IC90,[9]; [15],16 µM
same,IC50,"untransduced K562 cells; K562, read-out: BCNU IC50, clonogenic survival",1.3 µM
same,IC90,"untransduced K562 cells; K562, read-out: BCNU IC90, clonogenic survival",5 µM
same,cells resistant,"[10]; 10 μM BG and 10 μM BCNU, ΔMGMT transduced CD34+",approximately 25%
same,colonies very resistant to BG & BCNU,[10]; ΔMGMT transduced CD34+ derived colonies,Over 30%
same,cells killed,[11],greater than 99%
"Nc1nc(OCc2ccccc2)c2[nH]cnc2n1 [BG, O^6 -benzylguanine]",Increase of ED50 with P140A AGT,human AGT mutant P140A,30 fold
same,Increase of ED50 with G156A AGT,human AGT mutant G156A,60 fold
same,concentration required to reduce colony formation to <1 per 1000 cells plated,[2],50 µM
same,concentration needed to reduce colony formation to <1 per 1000 cells plated,[3],200 µM
same,survival under combined BG and BCNU,[4]; 350 μM BG with 80 μM BCNU,substantial survival
same,IC50,AGT [5],0.05 µM
same,activity at 5 µM,ΔAGT (G156A),> 90%
same,AGT activity,wtAGT,undetectable
Nc1nc(OCc2ccccc2)c2ncn([C@H]3C[C@H](O)[C@@H](CO)O3)c2n1 [dBG],potency relative to BG (less potent),AGT [12],10 fold
same,BCNU-potentiating effects compared with BG,xenograft,quite comparable
same,solubility in aqueous media compared to other BGs,[13],superior solubility
